Measured values from patent EP0201094A2, “Thieno[2,3-d]imidazole derivatives and process for their preparation” (Hafslund Nycomed Pharma Aktiengesellschaft, priority 1985, dated 1986).

System: Magensekretion
Assay: Gastric secretion in pylorus-ligated conscious female rats after oral dosing
Format: in vivo, Ratten (Stamm: Charles River CD)
Settings: for Säure gesamt / Säurekonzentration / Menge: pylorus ligation 60 min after dosing; for Säure gesamt / Säurekonzentration: measured 4 h after ligation; for Menge: stomach content measured 4 h after ligation; for Hemmung der Magensekretion: result in words, increasing oral doses of 125, 250 and 500 µmol/kg
Protocol: Die Substanzen wurden in 20 %-igem Dimethylsulfoxid gelöst und wachen weiblichen Ratten - (Stamm: Charles River CD) in ansteigenden Dosen von 125, 250 und 500 µmol/kg mit dem einheitlichen Dosierungsvolumen von 20 ml/kg oral appliziert. 60 Minuten später wurden die Tiere einer Pylorusligatur unterzogen. 4 Stunden nach Setzen der Pylorusligatur wurde die Säurekonzentration und der Gesamtsäuregehalt im Magenvolumen der Tiere bestimmt. Die Kontrollgruppe erhielt 20 ml/kg Dimethylsulfoxid bzw. 20 ml/kg destilliertes Wasser.

Molecule COc1ccnc(C[S+]([O-])c2nc3ccsc3[nH]2)c1 (centres unmarked) [Verbindung B] has a Säure gesamt (125 µmol/kg oral) of 0.37±0.07 mÄq, a Säurekonzentration (125 µmol/kg oral) of 0.08±0.007 mÄq/ml and a Menge (125 µmol/kg oral) of 4.5 ± 0.6 mL. For the same molecule, the Säure gesamt (250 µmol/kg oral) was 0.27±0.05 mÄq, the Säurekonzentration (250 µmol/kg oral) was 0.05±0.004 mÄq/ml and the Menge (250 µmol/kg oral) was 5.0 ± 0.6 mL. The Säure gesamt (500 µmol/kg oral) was 0.14±0.02 mÄq, the Säurekonzentration (500 µmol/kg oral) was 0.03±0.004 mÄq/ml and the Menge (500 µmol/kg oral) was 4.5 ± 0.4 mL. For the same molecule, the “Hemmung der Magensekretion” value was “signifikante, dosisabhängige Hemmung der Magensekretion”.

COc1c(C)cnc(C[S+]([O-])c2nc3cc(C(C)=O)sc3[nH]2)c1C (centres unmarked) [Verbindung A, 5-Acetyl-2-((4-methoxy-3,5-dimethyl-2-pyridyl)-methylsulfinyl)-3H-thieno(2,3-d)imidazol] was tested, and the Säure gesamt (125 µmol/kg oral) was 0.37±0.06 mÄq, the Säurekonzentration (125 µmol/kg oral) was 0.08±0.008 mÄq/ml and the Menge (125 µmol/kg oral) was 4.7 ± 0.4 mL. The Säure gesamt (250 µmol/kg oral) was 0.16±0.03 mÄq, the Säurekonzentration (250 µmol/kg oral) was 0.04±0.006 mÄq/ml and the Menge (250 µmol/kg oral) was 3.4 ± 0.3 mL. For the same molecule, the Säure gesamt (500 µmol/kg oral) was 0.13±0.03 mÄq, the Säurekonzentration (500 µmol/kg oral) was 0.04±0.005 mÄq/ml and the Menge (500 µmol/kg oral) was 3.1 ± 0.4 mL. For the same molecule, the “Hemmung der Magensekretion” value was “signifikante, dosisabhängige Hemmung der Magensekretion”.
